Experiments:
Assay type in all cases: cell-based
Conditions in all cases: compounds at 50 nM and 500 nM
[1] = molecular target: T1, IKZF2 (Homo sapiens, UniProt Q96SW2+Q9UKS7); assay: Western blot degradation of IKZF2 in hPBMCs (24 h)
T1 construct: The supernatant was aspirated as the extracted total cell protein; endogenous in cells; host or cells: human peripheral blood mononuclear cells (hPBMCs)
Outline: (§1)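 Compounds were tested at 50 nM and 500 nM on hPBMCs (1×10^6 cells/mL) for 24 h, alongside DMSO. Proteins were detected by Western blot after denaturation at 95 °C; remaining protein computed from normalised band grayscale.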

[2] = molecular target: T2, CK1α (Homo sapiens, UniProt P48729+Q96SW2); assay: Western blot degradation of CK1α in hPBMCs (24 h)
T2 construct: The supernatant was aspirated as the extracted total cell protein; endogenous in cells; host or cells: human peripheral blood mononuclear cells (hPBMCs)
T2 sequence (P48729 whole entry): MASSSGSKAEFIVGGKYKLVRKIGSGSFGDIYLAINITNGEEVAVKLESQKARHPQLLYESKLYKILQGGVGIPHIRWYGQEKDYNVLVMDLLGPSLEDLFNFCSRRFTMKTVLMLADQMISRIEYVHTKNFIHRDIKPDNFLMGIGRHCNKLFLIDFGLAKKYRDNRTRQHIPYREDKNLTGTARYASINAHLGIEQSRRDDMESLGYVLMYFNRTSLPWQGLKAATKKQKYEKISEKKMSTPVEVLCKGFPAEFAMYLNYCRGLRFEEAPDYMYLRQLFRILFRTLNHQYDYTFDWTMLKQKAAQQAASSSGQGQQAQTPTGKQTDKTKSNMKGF
T2 sequence (Q96SW2 whole entry): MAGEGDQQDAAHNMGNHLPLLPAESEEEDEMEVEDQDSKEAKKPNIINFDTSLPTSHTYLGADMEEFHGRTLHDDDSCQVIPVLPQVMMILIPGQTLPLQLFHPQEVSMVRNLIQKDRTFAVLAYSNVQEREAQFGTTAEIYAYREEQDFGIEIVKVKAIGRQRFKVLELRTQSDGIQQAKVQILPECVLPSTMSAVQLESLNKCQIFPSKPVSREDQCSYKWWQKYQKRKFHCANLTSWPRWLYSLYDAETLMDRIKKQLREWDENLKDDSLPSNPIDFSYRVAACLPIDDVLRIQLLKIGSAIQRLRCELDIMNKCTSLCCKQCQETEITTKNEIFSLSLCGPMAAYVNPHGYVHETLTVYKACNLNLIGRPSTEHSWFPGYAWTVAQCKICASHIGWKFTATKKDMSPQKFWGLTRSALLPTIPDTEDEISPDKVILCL
T2 sequence (Q16531 whole entry partner): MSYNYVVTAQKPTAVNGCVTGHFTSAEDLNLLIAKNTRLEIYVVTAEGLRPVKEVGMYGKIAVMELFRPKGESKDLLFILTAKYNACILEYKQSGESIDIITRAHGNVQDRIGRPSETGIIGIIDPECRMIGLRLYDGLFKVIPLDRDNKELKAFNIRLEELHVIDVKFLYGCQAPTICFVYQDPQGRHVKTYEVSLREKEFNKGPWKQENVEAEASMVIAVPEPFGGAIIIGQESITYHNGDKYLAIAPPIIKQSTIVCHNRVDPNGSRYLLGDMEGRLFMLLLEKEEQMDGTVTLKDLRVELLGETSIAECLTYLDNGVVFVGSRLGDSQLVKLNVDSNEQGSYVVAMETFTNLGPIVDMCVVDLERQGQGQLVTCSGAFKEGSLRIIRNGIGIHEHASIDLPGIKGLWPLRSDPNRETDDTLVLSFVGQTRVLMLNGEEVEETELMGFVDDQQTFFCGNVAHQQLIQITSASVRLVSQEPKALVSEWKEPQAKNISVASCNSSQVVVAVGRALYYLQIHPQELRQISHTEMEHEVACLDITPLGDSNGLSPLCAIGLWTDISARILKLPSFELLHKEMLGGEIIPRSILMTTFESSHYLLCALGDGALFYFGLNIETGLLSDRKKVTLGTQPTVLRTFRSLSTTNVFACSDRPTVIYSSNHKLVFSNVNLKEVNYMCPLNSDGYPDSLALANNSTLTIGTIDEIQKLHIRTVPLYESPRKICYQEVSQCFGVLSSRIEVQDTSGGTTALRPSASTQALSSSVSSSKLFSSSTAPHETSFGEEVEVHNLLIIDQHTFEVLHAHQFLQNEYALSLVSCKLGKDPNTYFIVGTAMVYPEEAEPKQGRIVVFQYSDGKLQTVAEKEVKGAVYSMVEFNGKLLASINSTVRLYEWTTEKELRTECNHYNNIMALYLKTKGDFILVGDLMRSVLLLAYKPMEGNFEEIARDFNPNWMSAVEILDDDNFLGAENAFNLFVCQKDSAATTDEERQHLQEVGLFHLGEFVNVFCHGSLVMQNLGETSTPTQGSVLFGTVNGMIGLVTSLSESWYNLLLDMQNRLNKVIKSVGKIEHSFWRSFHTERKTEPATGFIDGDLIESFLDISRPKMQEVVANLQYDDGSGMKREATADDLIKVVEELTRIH
Outline: as §1

[3] = molecular target: T3, IKZF3 (Homo sapiens, UniProt Q96SW2+Q9UKT9); assay: Western blot degradation of IKZF3 in hPBMCs (24 h)
T3 construct: The supernatant was aspirated as the extracted total cell protein; endogenous in cells; host or cells: human peripheral blood mononuclear cells (hPBMCs)
T3 sequence (Q9UKT9 whole entry): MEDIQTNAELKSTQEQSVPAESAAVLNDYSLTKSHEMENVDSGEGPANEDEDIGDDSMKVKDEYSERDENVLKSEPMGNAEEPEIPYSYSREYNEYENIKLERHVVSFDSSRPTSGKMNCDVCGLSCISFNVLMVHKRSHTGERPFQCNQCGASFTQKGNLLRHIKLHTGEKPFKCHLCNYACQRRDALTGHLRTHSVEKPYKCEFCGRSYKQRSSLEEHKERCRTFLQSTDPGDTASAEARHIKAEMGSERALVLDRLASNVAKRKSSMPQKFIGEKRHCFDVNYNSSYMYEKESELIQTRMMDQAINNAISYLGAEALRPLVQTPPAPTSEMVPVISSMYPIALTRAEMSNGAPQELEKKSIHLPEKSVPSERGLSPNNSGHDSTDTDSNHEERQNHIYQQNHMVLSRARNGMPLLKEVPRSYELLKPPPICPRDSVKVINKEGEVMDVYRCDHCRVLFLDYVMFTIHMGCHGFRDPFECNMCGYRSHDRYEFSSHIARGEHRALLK
T3 sequence (Q96SW2 whole entry): as the sequence (Q96SW2 whole entry) above
T3 sequence (Q16531 whole entry partner): as the sequence (Q16531 whole entry partner) above
Outline: as §1

[4] = molecular target: T4, GSPT1 (Homo sapiens, UniProt P15170+Q96SW2); assay: Western blot degradation of GSPT1 in hPBMCs (24 h)
T4 construct: The supernatant was aspirated as the extracted total cell protein; endogenous in cells; host or cells: human peripheral blood mononuclear cells (hPBMCs)
T4 sequence (P15170 whole entry): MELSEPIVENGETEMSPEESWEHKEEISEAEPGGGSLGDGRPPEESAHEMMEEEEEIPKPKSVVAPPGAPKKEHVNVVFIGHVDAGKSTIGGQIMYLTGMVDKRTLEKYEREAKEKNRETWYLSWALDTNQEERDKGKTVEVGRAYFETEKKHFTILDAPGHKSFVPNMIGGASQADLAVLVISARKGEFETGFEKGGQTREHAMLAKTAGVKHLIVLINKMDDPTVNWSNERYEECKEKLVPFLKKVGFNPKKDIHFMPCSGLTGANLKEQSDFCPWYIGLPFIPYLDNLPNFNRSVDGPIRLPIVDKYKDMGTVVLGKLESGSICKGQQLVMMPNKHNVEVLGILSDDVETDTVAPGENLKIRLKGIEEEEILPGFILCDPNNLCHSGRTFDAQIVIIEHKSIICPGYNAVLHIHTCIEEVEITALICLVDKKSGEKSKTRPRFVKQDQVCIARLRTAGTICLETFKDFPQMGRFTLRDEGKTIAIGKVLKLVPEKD
T4 sequence (Q96SW2 whole entry): as the sequence (Q96SW2 whole entry) above
T4 sequence (Q16531 whole entry partner): as the sequence (Q16531 whole entry partner) above
Outline: as §1

[5] = molecular target: T5, WEE1 (Homo sapiens, UniProt P30291+Q96SW2); assay: Western blot degradation of WEE1 in hPBMCs (24 h)
T5 construct: The supernatant was aspirated as the extracted total cell protein; endogenous in cells; host or cells: human peripheral blood mononuclear cells (hPBMCs)
Outline: as §1

[6] = molecular target: T6, IKZF1 (Homo sapiens, UniProt Q13422+Q96SW2); assay: Western blot degradation of IKZF1 in hPBMCs (24 h)
T6 construct: The supernatant was aspirated as the extracted total cell protein; endogenous in cells; host or cells: human peripheral blood mononuclear cells (hPBMCs)
T6 sequence (Q13422 whole entry): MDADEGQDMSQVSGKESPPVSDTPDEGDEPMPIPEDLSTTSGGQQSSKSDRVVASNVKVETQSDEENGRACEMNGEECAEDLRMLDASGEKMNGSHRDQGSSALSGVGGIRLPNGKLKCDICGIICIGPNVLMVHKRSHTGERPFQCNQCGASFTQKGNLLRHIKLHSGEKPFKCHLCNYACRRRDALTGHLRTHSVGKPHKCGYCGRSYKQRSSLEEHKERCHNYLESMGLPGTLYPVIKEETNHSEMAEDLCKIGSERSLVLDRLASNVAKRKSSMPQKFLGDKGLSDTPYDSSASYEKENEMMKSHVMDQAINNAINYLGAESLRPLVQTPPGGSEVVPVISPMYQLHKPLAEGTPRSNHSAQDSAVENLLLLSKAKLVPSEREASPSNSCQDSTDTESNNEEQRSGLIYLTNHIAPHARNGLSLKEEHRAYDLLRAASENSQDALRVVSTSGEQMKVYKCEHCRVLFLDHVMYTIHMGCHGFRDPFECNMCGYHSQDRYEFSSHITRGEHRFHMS
T6 sequence (Q96SW2 whole entry): as the sequence (Q96SW2 whole entry) above
T6 sequence (Q16531 whole entry partner): as the sequence (Q16531 whole entry partner) above
Outline: as §1

T1 sequence (Q9UKS7 whole entry): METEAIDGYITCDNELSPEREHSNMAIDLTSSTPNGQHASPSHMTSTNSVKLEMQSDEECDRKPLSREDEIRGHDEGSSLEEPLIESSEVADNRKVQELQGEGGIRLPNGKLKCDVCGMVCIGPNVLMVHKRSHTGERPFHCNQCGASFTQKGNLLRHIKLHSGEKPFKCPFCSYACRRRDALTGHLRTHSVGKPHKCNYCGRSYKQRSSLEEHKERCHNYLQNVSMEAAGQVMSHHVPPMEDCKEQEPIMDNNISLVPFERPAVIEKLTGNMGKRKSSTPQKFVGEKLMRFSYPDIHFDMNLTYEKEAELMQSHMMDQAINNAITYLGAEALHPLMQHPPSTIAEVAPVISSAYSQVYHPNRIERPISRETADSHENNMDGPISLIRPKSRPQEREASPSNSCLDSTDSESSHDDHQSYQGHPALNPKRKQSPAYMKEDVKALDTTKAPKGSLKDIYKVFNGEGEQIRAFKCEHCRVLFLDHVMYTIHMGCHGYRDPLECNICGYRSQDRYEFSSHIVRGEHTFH
T1 sequence (Q96SW2 whole entry): as the sequence (Q96SW2 whole entry) above
T1 sequence (Q16531 whole entry partner): as the sequence (Q16531 whole entry partner) above

SMILES	IKZF2 substrate protein remaining % [1]	CK1α substrate protein remaining % [2]	IKZF3 substrate protein remaining % [3]	GSPT1 substrate protein remaining % [4]	WEE1 substrate protein remaining % [5]	IKZF1 substrate protein remaining % [6]
O=C1CCN(N2C(=O)c3ccc(CN4CC5CCC(C4)N5C(c4ccccc4)c4ccccc4)cc3C2=O)C(=O)N1 [GT-06453, 5-((8-benzhydryl-3,8-diazabicyclo[3.2.1]octan-3-yl)methyl)-2-(2,4-dioxotetrahydropyrimidin-1(2H)-yl)isoindoline-1,3-dione]	A (0% ≤ substrate protein remaining % ≤80%)	B (80%< substrate protein remaining % ≤100%)	B (80%< substrate protein remaining % ≤100%)	B (80%< substrate protein remaining % ≤100%)	B (80%< substrate protein remaining % ≤100%)	B (80%< substrate protein remaining % ≤100%)
O=C1CCN(N2Cc3cc(CN4C5CCC4CN(C(c4ccccc4)c4ccccc4)C5)ccc3C2=O)C(=O)N1 [GT-06454, 1-(5-((3-benzhydryl-3,8-diazabicyclo[3.2.1]octan-8-yl)methyl)-1-oxoisoindolin-2-yl)dihydropyrimidine-2,4(1H,3H)-dione]	B (80%< substrate protein remaining % ≤100%)	B (80%< substrate protein remaining % ≤100%)	B (80%< substrate protein remaining % ≤100%)	B (80%< substrate protein remaining % ≤100%)	A (0% ≤ substrate protein remaining % ≤80%)	B (80%< substrate protein remaining % ≤100%)
O=C1CCN(N2C(=O)c3ccc(CN4C5CCC4CN(C(c4ccccc4)c4ccccc4)C5)cc3C2=O)C(=O)N1 [GT-06455, 5-((3-benzhydryl-3,8-diazabicyclo[3.2.1]octan-8-yl)methyl)-2-(2,4-dioxotetrahydropyrimidin-1(2H)-yl)isoindoline-1,3-dione]	B (80%< substrate protein remaining % ≤100%)	B (80%< substrate protein remaining % ≤100%)	B (80%< substrate protein remaining % ≤100%)	B (80%< substrate protein remaining % ≤100%)	A (0% ≤ substrate protein remaining % ≤80%)	B (80%< substrate protein remaining % ≤100%)
CC1(C)CCC(CN2CC3CC(C2)N3Cc2ccc3c(c2)C(=O)N(N2CCC(=O)NC2=O)C3=O)=C(c2ccc(Cl)cc2)C1 [GT-06457, 5-((3-((4′-chloro-5,5-dimethyl-3,4,5,6-tetrahydro-[1,1′-biphenyl]-2-yl)methyl)-3,6-diazabicyclo[3.1.1]heptan-6-yl)methyl)-2-(2,4-dioxotetrahydropyrimidin-1(2H)-yl)isoindoline-1,3-dione]	A (0% ≤ substrate protein remaining % ≤80%)	A (0% ≤ substrate protein remaining % ≤80%)	A (0% ≤ substrate protein remaining % ≤80%)	A (0% ≤ substrate protein remaining % ≤80%)	A (0% ≤ substrate protein remaining % ≤80%)	A (0% ≤ substrate protein remaining % ≤80%)
CC1(C)CCC(CN2C3CC2CN(Cc2ccc4c(c2)CN(N2CCC(=O)NC2=O)C4=O)C3)=C(c2ccc(Cl)cc2)C1 [GT-06458, 1-(5-((6-((4′-chloro-5,5-dimethyl-3,4,5,6-tetrahydro-[1,1′-biphenyl]-2-yl)methyl)-3,6-diazabicyclo[3.1.1]heptan-3-yl)methyl)-1-oxoisoindolin-2-yl)dihydropyrimidine-2,4(1H,3H)-dione]	A (0% ≤ substrate protein remaining % ≤80%)	A (0% ≤ substrate protein remaining % ≤80%)	A (0% ≤ substrate protein remaining % ≤80%)	A (0% ≤ substrate protein remaining % ≤80%)	A (0% ≤ substrate protein remaining % ≤80%)	A (0% ≤ substrate protein remaining % ≤80%)
CC1(C)CCC(CN2C3CC2CN(Cc2ccc4c(c2)C(=O)N(N2CCC(=O)NC2=O)C4=O)C3)=C(c2ccc(Cl)cc2)C1 [GT-06459, 5-((6-((4′-chloro-5,5-dimethyl-3,4,5,6-tetrahydro-[1,1′-biphenyl]-2-yl)methyl)-3,6-diazabicyclo[3.1.1]heptan-3-yl)methyl)-2-(2,4-dioxotetrahydropyrimidin-1(2H)-yl)isoindoline-1,3-dione]	A (0% ≤ substrate protein remaining % ≤80%)	A (0% ≤ substrate protein remaining % ≤80%)	A (0% ≤ substrate protein remaining % ≤80%)	A (0% ≤ substrate protein remaining % ≤80%)	A (0% ≤ substrate protein remaining % ≤80%)	A (0% ≤ substrate protein remaining % ≤80%)
O=C1CCN(N2Cc3cc(CN4CCN(c5cccc(F)c5)CC4)ccc3C2=O)C(=O)N1 [GT-06701, 1-(5-((4-(3-fluorophenyl)piperazin-1-yl)methyl)-1-oxoisoindolin-2-yl)dihydropyrimidine-2,4(1H,3H)-dione]	B (80%< substrate protein remaining % ≤100%)	A (0% ≤ substrate protein remaining % ≤80%)	B (80%< substrate protein remaining % ≤100%)	A (0% ≤ substrate protein remaining % ≤80%)	B (80%< substrate protein remaining % ≤100%)	B (80%< substrate protein remaining % ≤100%)
O=C1CCN(N2C(=O)c3ccc(CN4CCN(c5ccccc5)CC4)cc3C2=O)C(=O)N1 [GT-06719, 2-(2,4-dioxotetrahydropyrimidin-1(2H)-yl)-5-((4-phenylpiperazin-1-yl)methyl)isoindoline-1,3-dione]	B (80%< substrate protein remaining % ≤100%)	B (80%< substrate protein remaining % ≤100%)	A (0% ≤ substrate protein remaining % ≤80%)	B (80%< substrate protein remaining % ≤100%)	B (80%< substrate protein remaining % ≤100%)	B (80%< substrate protein remaining % ≤100%)
COc1ccccc1N1CCN(Cc2ccc3c(c2)C(=O)N(N2CCC(=O)NC2=O)C3=O)CC1 [GT-06720, 2-(2,4-dioxotetrahydropyrimidin-1(2H)-yl)-5-((4-(2-methoxyphenyl)piperazin-1-yl)methyl)isoindoline-1,3-dione]	B (80%< substrate protein remaining % ≤100%)	B (80%< substrate protein remaining % ≤100%)	A (0% ≤ substrate protein remaining % ≤80%)	B (80%< substrate protein remaining % ≤100%)	B (80%< substrate protein remaining % ≤100%)	B (80%< substrate protein remaining % ≤100%)
COc1cccc(N2CCN(Cc3ccc4c(c3)C(=O)N(N3CCC(=O)NC3=O)C4=O)CC2)c1 [GT-06721, 2-(2,4-dioxotetrahydropyrimidin-1(2H)-yl)-5-((4-(3-methoxyphenyl)piperazin-1-yl)methyl)isoindoline-1,3-dione]	A (0% ≤ substrate protein remaining % ≤80%)	B (80%< substrate protein remaining % ≤100%)	A (0% ≤ substrate protein remaining % ≤80%)	B (80%< substrate protein remaining % ≤100%)	B (80%< substrate protein remaining % ≤100%)	A (0% ≤ substrate protein remaining % ≤80%)
O=C1CCN(N2C(=O)c3ccc(CN4CCN(c5cccc(Br)c5)CC4)cc3C2=O)C(=O)N1 [GT-06722, 5-((4-(3-bromophenyl)piperazin-1-yl)methyl)-2-(2,4-dioxotetrahydropyrimidin-1(2H)-yl)isoindoline-1,3-dione]	B (80%< substrate protein remaining % ≤100%)	A (0% ≤ substrate protein remaining % ≤80%)	A (0% ≤ substrate protein remaining % ≤80%)	B (80%< substrate protein remaining % ≤100%)	A (0% ≤ substrate protein remaining % ≤80%)	A (0% ≤ substrate protein remaining % ≤80%)
O=C1CCN(N2C(=O)c3ccc(CN4CCN(c5cccc(F)c5)CC4)cc3C2=O)C(=O)N1 [GT-06724, 2-(2,4-dioxotetrahydropyrimidin-1(2H)-yl)-5-((4-(3-fluorophenyl)piperazin-1-yl)methyl)isoindoline-1,3-dione]	B (80%< substrate protein remaining % ≤100%)	B (80%< substrate protein remaining % ≤100%)	B (80%< substrate protein remaining % ≤100%)	B (80%< substrate protein remaining % ≤100%)	A (0% ≤ substrate protein remaining % ≤80%)	A (0% ≤ substrate protein remaining % ≤80%)
